Like-named read-outs stand apart in the source and are kept apart here.
Tests used:
hMeprin β = biological target: T1, hMeprin β (Homo sapiens, UniProt Q16820); experiment: Enzymatic assay, cleavage of internally quenched peptide substrate, hMeprin β; type: biochemical
T1 sequence (Q16820 62-701): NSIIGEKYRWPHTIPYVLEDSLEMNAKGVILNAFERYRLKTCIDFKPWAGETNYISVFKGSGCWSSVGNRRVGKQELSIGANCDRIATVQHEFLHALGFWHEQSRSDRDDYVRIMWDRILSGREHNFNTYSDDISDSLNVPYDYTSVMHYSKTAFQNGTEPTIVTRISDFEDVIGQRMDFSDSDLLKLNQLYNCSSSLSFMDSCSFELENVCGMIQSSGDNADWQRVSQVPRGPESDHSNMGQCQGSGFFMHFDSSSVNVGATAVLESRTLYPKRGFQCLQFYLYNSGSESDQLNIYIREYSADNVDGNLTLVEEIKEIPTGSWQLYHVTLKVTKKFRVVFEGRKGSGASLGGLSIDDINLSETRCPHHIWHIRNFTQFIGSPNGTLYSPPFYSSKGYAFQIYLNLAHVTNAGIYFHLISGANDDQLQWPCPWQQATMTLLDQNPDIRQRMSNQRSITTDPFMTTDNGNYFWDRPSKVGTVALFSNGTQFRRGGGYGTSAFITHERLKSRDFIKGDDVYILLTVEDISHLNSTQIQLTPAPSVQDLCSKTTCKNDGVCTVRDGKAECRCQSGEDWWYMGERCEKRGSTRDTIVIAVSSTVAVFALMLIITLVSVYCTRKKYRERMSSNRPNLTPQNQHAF
Procedure: (§1) A typical assay of 250 μl total volume measured in black 96 well plates consisted of 100 μl buffer, 50 μl enzyme at a final concentration of 5e-8 M to 5e-9 M, 50 μl substrate (0.15 to 80 μM, in buffer, 0.5% DMSO) and 50 μl inhibitor solution (in buffer, 1% DMSO). In case of 125 μl assay volume (black 96 half area well plates) all volumes were cut in half. Enzymatic activity of ADAMs was measured in 384 well plates with 60 μl total assay volume consisting of 20 μl inhibitor, 20 μl buffer, 10 μl enzyme and 10 μl substrate.
(§2) Ki values were assessed combining 4 substrate concentrations (5-40 μM) with at least 5 inhibitor concentrations. […] Initial velocities were determined and converted into concentration units applying a standard curve obtained after complete conversion of different substrate concentrations under assay conditions. All measurements were performed using a fluorescence plate reader (FLUOstar OPTIMA, BMG Labtech) at 30° C. The kinetic parameters were determined at least in duplicates on separate days. The excitation/emission wavelength was 340/420 nm. The kinetic data was evaluated using GraFit software (version 7.0.3, Erithacus Software).
(§3) The following compounds according to the present invention were synthesized using the above general procedures. IC50 refers to the average IC50 values measured as described above, SD (IC50) refers to the standard deviation of the average IC50 values, Ki refers to the average K; values measured as described above, and SD (Ki) to the standard deviation of the average Ki values.

hMeprin α = biological target: T2, hMeprin α (Homo sapiens, UniProt Q16819); experiment: biochemical; type: biochemical
T2 sequence (Q16819 66-746): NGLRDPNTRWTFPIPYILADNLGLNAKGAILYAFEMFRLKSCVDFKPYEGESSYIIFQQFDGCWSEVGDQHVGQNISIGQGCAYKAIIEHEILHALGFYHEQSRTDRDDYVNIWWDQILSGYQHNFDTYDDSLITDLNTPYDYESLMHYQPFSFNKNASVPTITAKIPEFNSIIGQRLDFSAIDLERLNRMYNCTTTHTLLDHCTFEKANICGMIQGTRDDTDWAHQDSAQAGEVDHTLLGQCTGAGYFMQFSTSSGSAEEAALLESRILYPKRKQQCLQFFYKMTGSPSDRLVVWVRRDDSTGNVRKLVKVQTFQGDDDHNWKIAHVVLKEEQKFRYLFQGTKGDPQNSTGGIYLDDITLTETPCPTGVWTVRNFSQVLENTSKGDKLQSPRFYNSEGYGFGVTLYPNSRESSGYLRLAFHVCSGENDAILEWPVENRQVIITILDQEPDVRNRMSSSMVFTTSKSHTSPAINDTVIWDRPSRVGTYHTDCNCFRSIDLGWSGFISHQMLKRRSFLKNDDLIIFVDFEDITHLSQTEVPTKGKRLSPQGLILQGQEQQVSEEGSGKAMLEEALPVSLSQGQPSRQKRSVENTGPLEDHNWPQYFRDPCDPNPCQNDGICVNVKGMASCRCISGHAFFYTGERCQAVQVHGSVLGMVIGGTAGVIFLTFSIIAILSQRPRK
Procedure: as §1, §2, §3

[1] = average IC50, 10 μM substrate, 30° C., 40 mM HEPES pH 7.4, read-out: Meprin Alpha IC50
[2] = average Ki, 4 substrate concentrations (5-40 μM), 30° C., 40 mM HEPES pH 7.4, read-out: Meprin Alpha Ki
[3] = average IC50, 10 μM substrate, 30° C., 40 mM Tris pH 8.0, read-out: Meprin Beta IC50

Row | Compound | IC50 (hMeprin β) [nM] | Ki (hMeprin β) [nM] | IC50 (hMeprin α; [1]) [nM] | Ki (hMeprin α; [2]) [nM] | also measured
1 | O=C(O)c1cccc(CN2CCCC2C(=O)NO)c1 (stereo in doubt) [Example 12, 3-[[(2R)-2-(Hydroxycarbamoyl)pyrrolidin-1-yl]methyl]benzoic acid] | 31400 |  |  |  | 
2 | O=C(O)c1cccc(CN2CCCC2C(=O)NO)c1 (stereo in doubt) [Example 13, 3-[[(2S)-2-(Hydroxycarbamoyl)pyrrolidin-1-yl]methyl]benzoic acid] | 41100 |  |  |  | 
3 | O=C(CN(Cc1ccc(C(=O)O)cc1)Cc1ccc(C(=O)O)cc1)NO [Example 1, 4-[[(4-Carboxyphenyl)methyl-[2-(hydroxyamino)-2-oxo-ethyl]amino]methyl]benzoic acid] | 468 | 223 | 85700 |  | 
4 | O=C(CN(Cc1cccc(C(=O)O)c1)Cc1cccc(C(=O)O)c1)NO [Example 2, 3-[[(3-Carboxyphenyl)methyl-[2-(hydroxyamino)-2-oxo-ethyl]amino]methyl]benzoic acid] |  | 18 | 30900 | 10400 | 
5 | O=C(CNCc1cccc(C(=O)O)c1)NO [Example 3, 3-[[[2-(Hydroxyamino)-2-oxo-ethyl]amino]-methyl]benzoic acid] |  | 183 |  |  | IC50 (hMeprin β; [3]): 377 nM
6 | O=C(CN(Cc1ccc2c(c1)OCO2)Cc1ccc2c(c1)OCO2)NO [Example 4, 2-[bis(1,3-Benzodioxol-5-ylmethyl)amino]-ethanehydroxamic acid] | 5360 | 6560 | 830 | 274 | 
7 | COc1cccc(CN(CC(=O)NO)Cc2cccc(OC)c2)c1 [Example 5, 2-[bis[(3-Methoxyphenyl)methyl]amino]-ethanehydroxamic acid] | 25600 | 15700 |  |  | 
8 | COc1ccc(CN(CC(=O)NO)Cc2cccc(C(=O)O)c2)cc1 [Example 6, 3-[[[2-(Hydroxyamino)-2-oxo-ethyl]-[(4-methoxyphenyl)methyl]amino]-methyl]benzoic acid] |  | 39 |  | 1210 | 
9 | O=C(CN(Cc1ccc(C(=O)O)cc1)Cc1cccc(C(=O)O)c1)NO [Example 7, 3-[[(4-Carboxyphenyl)methyl-[2-(hydroxyamino)-2-oxo-ethyl]amino]methyl]benzoic acid] |  | 101 | 44400 |  | IC50 (hMeprin β; [3]): 206 nM
10 | O=C(CN(Cc1ccc(-c2ccccc2)cc1)Cc1cccc(C(=O)O)c1)NO [Example 8, 3-[[[2-(Hydroxyamino)-2-oxo-ethyl]-[(4-biphenyl)methyl]amino]-methyl]benzoic acid] | 1440 | 1030 |  |  | 
11 | CCCOc1ccc(CN(CC(=O)NO)Cc2cccc(C(=O)O)c2)cc1 [Example 9, 3-[[[2-(Hydroxyamino)-2-oxo-ethyl]-[(4-propoxyphenyl)methyl]amino]-methyl]benzoic acid] | 2250 | 874 |  |  | 
12 | COc1ccc(CN(CC(=O)NO)Cc2cccc(C(=O)O)c2)cc1F [Example 10, 3-[[(3-Fluoro-4-methoxy-phenyl)methyl-[2-(hydroxyamino)-2-oxo-ethyl]amino]methyl]benzoic acid] | 352 | 157 | 3740 | 1090 | 
13 | COc1cc(F)c(CN(CC(=O)NO)Cc2cccc(C(=O)O)c2)c(F)c1 [Example 11, 3-[[(2,6-Difluoro-4-methoxy-phenyl)methyl-[2-(hydroxyamino)-2-oxo-ethyl]amino]methyl]benzoic acid] | 355 | 154 | 2120 | 1260 | 
14 | COc1cccc(CN(CC(=O)NO)Cc2cccc(C(=O)O)c2)c1 [Example 14, 3-[[[2-(Hydroxyamino)-2-oxo-ethyl]-[(3-methoxyphenyl)methyl]amino]-methyl]benzoic acid] |  | 288 |  |  | IC50 (hMeprin β; [3]): 559 nM
15 | COc1ccc(CN(CC(=O)NO)Cc2ccc(OC)cc2)cc1 [Example 15, 2-[bis[(4-Methoxyphenyl)methyl]amino]ethane-hydroxamic acid] | 31800 |  |  |  | 
16 | COc1ccc(CN(CC(=O)NO)Cc2ccccc2C(=O)O)cc1 [Example 16, 2-[[[2-(Hydroxyamino)-2-oxo-ethyl]-[(4-methoxyphenyl)methyl]amino]-methyl]benzoic acid] | 22800 |  |  |  | 
17 | O=C(CN(Cc1ccccc1)Cc1cccc(C(=O)O)c1)NO [Example 17] |  | 797 |  |  | 
18 | Cc1ccc(CN(CC(=O)NO)Cc2cccc(C(=O)O)c2)cc1 [Example 18, 3-[[[2-(Hydroxyamino)-2-oxo-ethyl]-(p-tolyl-methyl)amino]methyl]benzoic acid] | 361 | 170 | 4670 | 1990 | 
19 | N#Cc1ccc(CN(CC(=O)NO)Cc2cccc(C(=O)O)c2)cc1 [Example 19, 3-[[(4-Cyanophenyl)methyl-[2-(hydroxyamino)-2-oxo-ethyl]amino]methyl]benzoic acid] |  | 125 | 4880 | 1950 | IC50 (hMeprin β; [3]): 320 nM
20 | O=C(CN(Cc1ccc(Cl)cc1)Cc1cccc(C(=O)O)c1)NO [Example 20, 3-[[(4-Chlorophenyl)methyl-[2-(hydroxyamino)-2-oxo-ethyl]amino]methyl]benzoic acid] |  | 33 | 1800 | 796 | IC50 (hMeprin β; [3]): 76 nM
21 | O=C(CN(Cc1ccc(F)cc1)Cc1cccc(C(=O)O)c1)NO [Example 21, 3-[[(4-Fluorophenyl)methyl-[2-(hydroxyamino)-2-oxo-ethyl]amino]methyl]benzoic acid] |  | 1680 |  |  | IC50 (hMeprin β; [3]): 177 nM; IC50 (hMeprin α): 4220 nM; Ki (hMeprin α): 1680 nM
22 | N#Cc1ccc(CN(CC(=O)NO)Cc2ccc(C#N)cc2)cc1 [Example 55, 2-[bis[(4-cyanophenyl)methyl]amino]-ethanehydroxamic acid] |  |  | 5660 | 1600 | 
23 | COc1c(Cl)ccc(CN(CC(=O)NO)Cc2ccc(Cl)c(OC)c2F)c1F [Example 56, 2-[bis[(4-chloro-2-fluoro-3-methoxy-phenyl)-methyl]amino]ethanehydroxamic acid] |  |  | 4980 | 1010 | 
24 | N#Cc1ccc(CN(CCC(=O)NO)Cc2ccc(C#N)cc2)cc1 [Example 57, 3-[bis[(4-cyanophenyl)methyl]amino]-propanehydroxamic acid] |  |  |  | 1200 | 
25 | O=C(CCN(Cc1ccc(Cl)cc1F)Cc1ccc(Cl)cc1F)NO [Example 62, 3-[bis[(4-chloro-2-fluoro-phenyl)methyl]-amino]propanehydroxamic acid] |  |  |  | 169 | 
26 | COc1c(Cl)ccc(CN(CCC(=O)NO)Cc2ccc(Cl)c(OC)c2F)c1F [Example 65, 3-[bis[(4-chloro-2-fluoro-3-methoxy-phenyl)-methyl]amino]propanehydroxamic acid] |  |  |  | 157 | 
27 | O=C(CN(Cc1ccccc1)Cc1ccccc1)NO [Example 67, 2-(dibenzylamino) ethanehydroxamic acid] |  |  | 7880 | 3090 | 

Source: US12378186B2, “Inhibitors of meprin α and β” (VIVORYON THERAPEUTICS N.V., priority 2016, dated 2025)
